“Also recorded” adds a separate entry of the source. Like-named read-outs stand apart in the source and are kept apart here.
Assays:
[1] = system: synaptic benzodiazepine-sensitive receptors (BZR), GABAAR; test: 3H-flunitrazepam binding, rat brain homogenate; details: for BZR % (percent inhibition): at 10,000 nM; for Ki: read-out: BZR (Ki)
µ opioid receptor (MOR) = µ opioid receptor (MOR) (Homo sapiens, UniProt P35372); test: Radioligand competition binding, MOR ([3H]-DAMGO), HEK293 cell homogenates; details: [3H]-DAMGO; for inhibition at 10 µM: read-out: MOR % (percent inhibition), at 10,000 nM; for MOR % (percent inhibition): at 10,000 nM
δ opioid receptor (DOR) = δ opioid receptor (DOR) (Homo sapiens, UniProt P41143); test: Radioligand competition binding, DOR ([3H]-DADLE), HEK293 cell homogenates; details: for inhibition at 10 µM: read-out: DOR % (percent inhibition), at 10,000 nM; for DOR % (percent inhibition): at 10,000 nM
κ opioid receptor (KOR) = κ opioid receptor (KOR) (Homo sapiens, UniProt P41145); test: Radioligand competition binding, KOR ([3H]-U69593), HEK293 cell homogenates; details: for inhibition at 10 µM: read-out: KOR % (percent inhibition), at 10,000 nM; for inhibition at 10 µM / KOR % (percent inhibition): [3H]-U69593; for KOR affinity (in words): screening at 10,000 nM; for KOR % (percent inhibition): at 10,000 nM
[2] = read-out: KOR (Ki), [3H]-U69593, HEK293 homogenates

SMILES | BZR % (percent inhibition) [1] [%] | Ki [1] [nM] | inhibition at 10 µM (µ opioid receptor (MOR)) [%] | inhibition at 10 µM (δ opioid receptor (DOR)) [%] | inhibition at 10 µM (κ opioid receptor (KOR)) [%] | KOR affinity (in words) (κ opioid receptor (KOR)) | MOR % (percent inhibition) (µ opioid receptor (MOR)) [%] | DOR % (percent inhibition) (δ opioid receptor (DOR)) [%] | KOR % (percent inhibition) (κ opioid receptor (KOR)) [%] | Ki (κ opioid receptor (KOR); [2]) [nM] | Ki (κ opioid receptor (KOR)) [nM] | Affinity towards KOR as % of the GL-I-30-KOR binding affinity (κ opioid receptor (KOR)) [%]
C[C@H]1N=C(c2ccccc2F)c2cc(Br)ccc2-n2cnc(C(=O)O)c21 [GL-II-93] | 73 | 86 | 0 | 0 | 0 | No KOR affinity; also recorded: insignificant KOR affinity |  |  |  |  |  | 
C[C@H]1N=C(c2ccccc2F)c2cc(Br)ccc2-n2cnc(-c3cnco3)c21 [GL-III-36] | 86 | 319 |  |  |  |  | 0 | 12 | 88 | 246 |  | 
CCOC(=O)c1ncn2c1[C@@H](C)N=C(c1ccccc1F)c1cc(C3CC3)ccc1-2 [GL-III-42] | 62 | 726 |  |  | 86 |  | 0 | 13 |  |  |  | 
C[C@H]1N=C(c2ccccc2F)c2cc(Cl)ccc2-n2cnc(C(=O)O)c21 [GL-III-54] | 100 | 42 | 0 | 0 | 22 |  |  |  |  |  |  | 
Cc1noc(-c2ncn3c2[C@@H](C)N=C(c2ccccc2F)c2cc(Br)ccc2-3)n1 [GL-III-60] | 100 | 784 |  |  |  |  | 26 | 18 | 87 | 232 |  | 
Cc1noc(-c2ncn3c2[C@@H](C)N=C(c2ccccc2F)c2cc(C4CC4)ccc2-3)n1 [GL-III-63] | 28 |  |  |  |  |  | 8 | 31 | 78 | 678 |  | 
Cc1noc(-c2ncn3c2[C@@H](C)N=C(c2ccccn2)c2cc(C4CC4)ccc2-3)n1 [GL-III-64] | 92 | 1490 |  |  |  |  | 7 | 14 | 60 | 2050 |  | 
C#Cc1ccc2c(c1)C(c1ccccc1F)=N[C@H](C)c1c(C(=O)NC(C)C)ncn1-2 [GL-III-66] | 88 | 271 | 0 | 0 | 63 |  |  |  |  |  | 233 | 
CCNC(=O)c1ncn2c1[C@@H](C)N=C(c1ccccc1F)c1cc(C3CC3)ccc1-2 [GL-III-68] | 100 | 452 | 0 | 10 | 88 |  |  |  |  |  | 150 | 
C[C@H]1N=C(c2ccccc2F)c2cc(Br)ccc2-n2cnc(C(=O)N(C)C)c21 [GL-III-69] | 100 | 446 | 0 | 10 | 75 |  |  |  |  |  | 511 | 
C[C@H]1N=C(c2ccccc2F)c2cc(C3CC3)ccc2-n2cnc(C(=O)N(C)C)c21 [GL-III-70] | 100 | 3400 | 0 | 50 | 68 |  |  |  |  |  | 800 | 
C#Cc1ccc2c(c1)C(c1ccccc1F)=N[C@H](C)c1c(-c3cnco3)ncn1-2 [GL-III-73] | 65 | 602 |  |  |  |  | 12 | 4 | 74 | 449 |  | 
C[C@@H]1N=C(c2ccccc2F)c2cc(Br)ccc2-n2cnc(-c3cnco3)c21 [GL-III-76] | 100 | 120 |  |  |  |  | 3 | 0 | 83 | 221 |  | 
C#Cc1ccc2c(c1)C(c1ccccc1F)=N[C@@H](C)c1c(-c3cnco3)ncn1-2 [GL-III-78] | 101 | 261 |  |  |  |  | 10 | 9 | 74 | 451 |  | 
C#Cc1ccc2c(c1)C(c1ccccc1F)=NCc1c(-c3cnco3)ncn1-2 [KRM-II-18B] | 97 | 38 | 11 | 20 | 89 |  |  |  |  |  | 361 | 
Brc1ccc2c(c1)C(c1ccccc1)=NCc1c(-c3cnco3)ncn1-2 [KRM-II-73] | 97 | 45 | 11 | 32 | 83 |  |  |  |  |  | 736 | 
Cc1ncoc1-c1ncn2c1CN=C(c1ccccn1)c1cc(Br)ccc1-2 [KRM-II-81] | 86 | 294 | 7 | 15 | 46 | insignificant KOR affinity |  |  |  |  |  | 

SMILES | BZR % (percent inhibition) [1] [%] | Ki [1] [nM] | inhibition at 10 µM (µ opioid receptor (MOR)) [%] | inhibition at 10 µM (δ opioid receptor (DOR)) [%] | inhibition at 10 µM (κ opioid receptor (KOR)) [%] | KOR affinity (in words) (κ opioid receptor (KOR)) | MOR % (percent inhibition) (µ opioid receptor (MOR)) [%] | DOR % (percent inhibition) (δ opioid receptor (DOR)) [%] | KOR % (percent inhibition) (κ opioid receptor (KOR)) [%] | Ki (κ opioid receptor (KOR); [2]) [nM] | Ki (κ opioid receptor (KOR)) [nM] | Affinity towards KOR as % of the GL-I-30-KOR binding affinity (κ opioid receptor (KOR)) [%]
C#Cc1ccc2c(c1)C(c1ccccc1)=NCc1c(-c3cnco3)ncn1-2 [KRM-II-82] | 95 | 96 | 5 | 20 | 78 |  |  |  |  |  | 1200 | 
Brc1ccc2c(c1)C(c1ccccn1)=NCc1c(-c3cnco3)ncn1-2 [KRM-II-97] | 93 | 140 | 18 | 8 | 62 |  |  |  |  |  | 1960 | 
Cc1ncoc1-c1ncn2c1CN=C(c1ccccc1F)c1cc(Br)ccc1-2 [KRM-III-59] | 96 | 20 | 0 | 11 | 73 |  |  |  |  |  | 408 | 
C#Cc1ccc2c(c1)C(c1ccccc1F)=NCc1c(-c3ocnc3C)ncn1-2 [KRM-III-65] | 96 | 45 | 0 | 16 | 64 |  |  |  |  |  | 879 | 
Cc1ncoc1-c1ncn2c1CN=C(c1ccccc1)c1cc(Br)ccc1-2 [KRM-III-66] | 86 | 49 | 12 | 11 | 67 |  |  |  |  |  | 756 | 
C#Cc1ccc2c(c1)C(c1ccccn1)=NCc1c(-c3cnco3)ncn1-2 [KRM-III-67] | 71 | 144 | 30 | 3 | 48 |  |  |  |  |  |  | 
C#Cc1ccc2c(c1)C(c1ccccn1)=NCc1c(-c3ocnc3C)ncn1-2 [KRM-III-79] | 81 | 308 | 32 | 1 | 9 |  |  |  |  |  |  | 
C#Cc1ccc2c(c1)C(c1ccccn1)=NCc1c(C(=O)OC(C)C)ncn1-2 [MP-II-068] | 97 | 42 | 0 | 34 | 85 |  |  |  |  |  | 550 | 4.9
C#Cc1ccc2c(c1)C(c1ccccc1F)=NCc1c(C(=O)OCc3ccccc3)ncn1-2 [MP-II-075] | 98 | 21 | 0 | 16 | 84 |  |  |  |  | 547 |  | 
C#Cc1ccc2c(c1)C(c1ccccc1F)=N[C@H](C)c1c(C(=O)OC)ncn1-2 [MP-III-004] | 78 | 445 | 0 | 24 | 76 |  |  |  |  |  | 599 | 
C#Cc1ccc2c(c1)C(c1ccccc1F)=N[C@@H](C)c1c(C(N)=O)ncn1-2 [MP-III-018.B] | 97 | 17 | 2 | 10 | 51 |  |  |  |  |  | 2780 | 
C#Cc1ccc2c(c1)C(c1ccccc1F)=N[C@H](C)c1c(C(N)=O)ncn1-2 [MP-III-019.B] | 94 | 54 | 2 | 0 | 62 |  |  |  |  |  | 1530 | 
C#Cc1ccc2c(c1)C(c1ccccc1F)=N[C@@H](C)c1c(C(=O)OC)ncn1-2 [MP-III-021] | 88 | 219 | 0 | 22 | 93 |  |  |  |  |  | 122 | 
C#Cc1ccc2c(c1)C(c1ccccc1F)=N[C@H](C)c1c(C(=O)NC)ncn1-2 [MP-III-022] | 95 | 83 | 3 | 22 | 80 |  |  |  |  |  |  | 
C#Cc1ccc2c(c1)C(c1ccccc1F)=N[C@@H](C)c1c(C(=O)NC)ncn1-2 [MP-III-023] | 97 | 37 | 0 | 16 | 91 |  |  |  |  |  | 119 | 
C#Cc1ccc2c(c1)C(c1ccccn1)=NCc1c(C(=O)OC)ncn1-2 [MP-III-024] | 81 | 277 | 0 | 24 | 43 |  |  |  |  |  |  | 
COC(=O)c1ncn2c1[C@@H](C)N=C(c1ccccc1F)c1cc(Br)ccc1-2 [MP-III-058] | 86 | 290 | 0 | 4 | 84 |  |  |  |  |  | 237 | 
